According to patent EP4678638A1, “NEW E3 UBIQUITIN LIGASE LIGAND, PROTEIN DEGRADATION AGENT AND USE THEREOF” (priority 2023, dated 2024):

How the values were obtained:
[1] = system: MM.1S; assay: CCK-8 proliferation, MM.1S; format: cell-based; details: Homo sapiens, MM1.S; Table B10, compounds designed based on the IRAK4 inhibitors; MM.1S cells; read-out: Inhibitory activity (IC50, nM) on tumor cell proliferation, MM.1S
Procedure: (§1) The tumor cells used herein were cultured in a cell culture medium listed in table A1 at 37°C in an incubator with 5% CO2. Prior to experimentation, all cell lines used were correctly identified by STR profiling, and tested negative for mycoplasma contamination using a mycoplasma detection kit through routine screenings. Table A1. Tumor cells and cell culture medium used in the present disclosure
(§2) IC50 values of the compounds of the present disclosure (including the compounds in Table 1, and compounds of examples) were measured using the Meilun Cell Counting Kit-8 kit from Dalian Meilun Biotech Co., Ltd. Assay details are as follows: tumor cells were seeded in a 96-well plate at a density listed in Table A2. After 24h, 100 µL of the inoculated cells were treated with 0.5µL of the compounds of the present disclosure (including the compounds in Tables 1 and 2, and compounds of examples) at 10 different successively decreasing concentrations (starting at the highest concentration of 10µM; 5-fold serial dilutions). After the cells were treated with the compounds of the present disclosure for a period of time, the cell viability detection reagent was added to the culture medium for cell viability assessment according to the instructions provided with the CCK-8 kit. […] The growth inhibition of the compounds of the present disclosure on cells was plotted by Prism Graphpad software, and the IC50 values of the compounds of the present disclosure were calculated therefrom. […] Seeding protocol and treatment time for tumor cells

[2] = target: T1, IRAK4 (Homo sapiens, UniProt Q9NWZ3); assay: Western blot degradation of IRAK4 (hPBMC); format: cell-based; details: Table D1
T1 construct: evaluate the effects of the compounds of the present disclosure on the expression of target proteins in cells; endogenous in cells; host or cells: hPBMC
T1 sequence (Q9NWZ3 1-460): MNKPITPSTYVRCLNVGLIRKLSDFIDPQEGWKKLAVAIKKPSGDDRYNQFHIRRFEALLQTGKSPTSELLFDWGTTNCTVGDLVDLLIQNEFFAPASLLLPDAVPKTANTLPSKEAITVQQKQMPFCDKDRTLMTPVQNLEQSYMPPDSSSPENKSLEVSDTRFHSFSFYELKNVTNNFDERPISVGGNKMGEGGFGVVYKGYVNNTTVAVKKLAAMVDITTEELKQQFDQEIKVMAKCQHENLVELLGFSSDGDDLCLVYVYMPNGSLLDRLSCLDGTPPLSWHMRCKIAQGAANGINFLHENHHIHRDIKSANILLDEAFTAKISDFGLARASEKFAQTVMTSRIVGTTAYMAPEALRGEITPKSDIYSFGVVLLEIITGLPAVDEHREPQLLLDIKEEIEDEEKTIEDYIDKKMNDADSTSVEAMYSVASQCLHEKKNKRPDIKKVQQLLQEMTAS
In short: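 After compound exposure, cells were harvested and lysates run on SDS-PAGE, transferred to nitrocellulose and probed with antibodies. Remaining target (%) was computed from band grayscale relative to an internal control protein and normalised; degradation (%) was 100% minus that.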

[3] = target: T2, human Cereblon WT GST-tagged protein (Homo sapiens, UniProt Q96SW2); assay: CRBN binding, HTRF (CEREBLON BINDING kit); details: Table II-2, CRBN binding screening, HTRF; for inhibition at 0.5 µM: read-out: Inhibition rate (%) at 0.5µM; for inhibition at 2 µM: read-out: Inhibition rate (%) at 2 µM
T2 construct: purchased CISBIO 64BDCRBNPEH
T2 sequence (Q96SW2 whole entry): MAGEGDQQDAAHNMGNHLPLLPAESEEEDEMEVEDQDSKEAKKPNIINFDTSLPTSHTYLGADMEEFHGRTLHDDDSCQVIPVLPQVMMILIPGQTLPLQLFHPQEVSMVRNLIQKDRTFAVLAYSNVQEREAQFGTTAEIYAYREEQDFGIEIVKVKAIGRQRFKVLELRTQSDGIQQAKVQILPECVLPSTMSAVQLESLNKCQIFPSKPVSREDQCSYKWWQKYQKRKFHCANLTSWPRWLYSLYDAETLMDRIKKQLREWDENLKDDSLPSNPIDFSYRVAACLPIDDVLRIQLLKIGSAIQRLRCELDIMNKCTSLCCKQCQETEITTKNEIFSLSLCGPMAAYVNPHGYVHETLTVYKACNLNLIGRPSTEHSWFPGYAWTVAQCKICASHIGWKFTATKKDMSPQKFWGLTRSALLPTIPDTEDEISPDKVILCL
In short: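 After 3 h at room temperature, emission at 665 and 620 nm was measured in a homogeneous time-resolved fluorescence format. Compounds competed with a Thalidomide-Re probe for GST-tagged wild-type human CRBN, which was labelled with a Eu anti-GST antibody.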

[4] = system: SR; assay: CCK-8 proliferation, SR; format: cell-based, Human; details: Homo sapiens; Table B10, compounds designed based on the IRAK4 inhibitors; SR cells; read-out: Inhibitory activity (IC50, nM) on tumor cell proliferation, SR
Procedure: as §1, §2

Structure (SMILES): O=C1CCN(c2ccc(CN3CCC(n4cc(NC(=O)c5coc(-c6ccnc(NCC7CC7)c6)n5)c(C(F)F)n4)CC3)cc2)C(=O)N1 [GT-04956, 2-(2-((cyclopropylmethyl)amino)pyridin-4-yl)-N-(3-(difluoromethyl)-1-(1-(4-(2,4-dioxotetrahydropyrimidin-1(2H)-yl)benzyl)piperidin-4-yl)-1H-pyrazol-4-yl)oxazole-4-carboxamide]
- IC50 [1]: 100 to 500 nM
- Degradation of substrate protein IRAK4 (substrate protein remaining %) [2]: A (A is defined as 0% ≤ substrate protein remaining % ≤ 80%)

Structure (SMILES): O=C1CCN(c2ccc(CN3CCC(n4cc(NC(=O)c5coc(-c6ccnc(NCC7CC7)c6)n5)c(C(F)F)n4)CC3)nc2)C(=O)N1 [GT-04958, 2-(2-((cyclopropylmethyl)amino)pyridin-4-yl)-N-(3-(difluoromethyl)-1-(1-((5-(2,4-dioxotetrahydropyrimidin-1(2H)-yl)pyridin-2-yl)methyl)piperidin-4-yl)-1H-pyrazol-4-yl)oxazole-4-carboxamide]
- IC50 [1]: 100 to 500 nM
- Degradation of substrate protein IRAK4 (substrate protein remaining %) [2]: A (A is defined as 0% ≤ substrate protein remaining % ≤ 80%)

Structure (SMILES): COc1cc2nn(C3CCN(Cc4cncc(N5CCC(=O)NC5=O)c4)CC3)cc2cc1NC(=O)c1cccc(C(F)(F)F)n1 [GT-07533, N-(2-(1-((5-(2,4-dioxotetrahydropyrimidin-1(2H)-yl)pyridin-3-yl)methyl)piperidin-4-yl)-6-methoxy-2H-indazol-5-yl)-6-(trifluoromethyl)picolinamide]
- Degradation of substrate protein IRAK4 (substrate protein remaining %) [2]: A (A is defined as 0% ≤ substrate protein remaining % ≤ 80%)
- inhibition at 0.5 µM [3]: 10 to 20%
- inhibition at 2 µM [3]: 53 to 60%

Structure (SMILES): O=C1CCC(Nc2cccc(CN3CCN(Cc4ccc5c(c4)nc(NC(=O)c4cccc(C(F)(F)F)c4)n5C4CCC(CO)CC4)CC3)c2)C(=O)N1 (stereo not shown) [GT-04976, N-(5-((4-(3-((2,6-dioxopiperidin-3-yl)amino)benzyl)piperazin-1-yl)methyl)-1-((1s,4s)-4-(hydroxymethyl)cyclohexyl) -1H-benzo[d]imidazol-2-yl)-3-(trifluoromethyl)benzamide]
- IC50 [1]: 100 to 500 nM
- Degradation of substrate protein IRAK4 (substrate protein remaining %) [2]: A (A is defined as 0% ≤ substrate protein remaining % ≤ 80%)
- IC50 [4]: 100 to 500 nM

Structure (SMILES): CC(C)(O)c1cc2nc(C3CCN(Cc4cc(N5CCC(=O)NC5=O)ncc4F)CC3)oc2cc1NC(=O)c1cccc(C(F)(F)F)n1 [GT-07626, N-(2-(1-((2-(2,4-dioxotetrahydropyrimidin-1(2H)-yl)-5-fluoropyridin-4-yl)methyl)piperidin-4-yl)-5-(2-hydroxypropan-2-yl)benzo[d]oxazol-6-yl)-6-(trifluoromethyl)picolinamide]
- Degradation of substrate protein IRAK4 (substrate protein remaining %) [2]: A (A is defined as 0% ≤ substrate protein remaining % ≤ 80%)
- inhibition at 0.5 µM [3]: 20 to 30%
- inhibition at 2 µM [3]: 60 to 80%

Structure (SMILES): CC(C)Nc1cc(-n2ccc3cc(C#N)cnc32)ncc1C(=O)NC1CCN(Cc2cc(C3CCC(=O)NC3=O)cnc2F)CC1 (stereo not shown) [GT-07544, 6-(5-cyano-1H-pyrrolo[2,3-b]pyridin-1-yl)-N-(1-((5-(2,6-dioxopiperidin-3-yl)-2-fluoropyridin-3-yl)methyl)piperidin-4-yl)-4-(isopropylamino)nicotinamide]
- Degradation of substrate protein IRAK4 (substrate protein remaining %) [2]: A (A is defined as 0% ≤ substrate protein remaining % ≤ 80%)
- inhibition at 0.5 µM [3]: 53 to 60%
- inhibition at 2 µM [3]: 80 to 100%

Structure (SMILES): COc1cc2nn(C3CCN(Cc4ccc(C5CCC(=O)NC5=O)cn4)CC3)cc2cc1NC(=O)c1cccc(C(F)(F)F)c1 (stereo not shown) [GT-07417, N-(2-(1-((5-(2,6-dioxopiperidin-3-yl)pyridin-2-yl)methyl)piperidin-4-yl)-6-methoxy-2H-indazol-5-yl)-3-(trifluoromethyl)benzamide]
- Degradation of substrate protein IRAK4 (substrate protein remaining %) [2]: A (A is defined as 0% ≤ substrate protein remaining % ≤ 80%)
- inhibition at 0.5 µM [3]: 30 to 40%
- inhibition at 2 µM [3]: 60 to 80%

Structure (SMILES): COc1cc2nn(C3CCN(Cc4cc(C5CCC(=O)NC5=O)cnc4F)CC3)cc2cc1NC(=O)c1cccc(C(F)(F)F)n1 (stereo not shown) [GT-07549, N-(2-(1-((5-(2,6-dioxopiperidin-3-yl)-2-fluoropyridin-3-yl)methyl)piperidin-4-yl)-6-methoxy-2H-indazol-5-yl)-6-(trifluoromethyl)picolinamide]
- Degradation of substrate protein IRAK4 (substrate protein remaining %) [2]: A (A is defined as 0% ≤ substrate protein remaining % ≤ 80%)
- inhibition at 0.5 µM [3]: 40 to 53%
- inhibition at 2 µM [3]: 80 to 100%

Structure (SMILES): CC(C)(O)c1cc2nc(C3CCN(Cc4cncc(C5CCC(=O)NC5=O)c4)CC3)sc2cc1NC(=O)c1cccc(C(F)(F)F)n1 (stereo not shown) [GT-07624, N-(2-(1-((5-(2,6-dioxopiperidin-3-yl)pyridin-3-yl)methyl)piperidin-4-yl)-5-(2-hydroxypropan-2-yl)benzo[d]thiazol-6-yl)-6-(trifluoromethyl)picolinamide]
- Degradation of substrate protein IRAK4 (substrate protein remaining %) [2]: A (A is defined as 0% ≤ substrate protein remaining % ≤ 80%)
- inhibition at 0.5 µM [3]: 20 to 30%
- inhibition at 2 µM [3]: 60 to 80%

Structure (SMILES): CC(C)(O)c1cc2nn(C3CCN(Cc4cncc(C5CCC(=O)NC5=O)c4)CC3)cc2cc1NC(=O)c1cccc(C(F)(F)F)n1 (stereo not shown) [GT-07543, N-(2-(1-((5-(2,6-dioxopiperidin-3-yl)pyridin-3-yl)methyl)piperidin-4-yl)-6-(2-hydroxypropan-2-yl)-2H-indazol-5-yl)-6-(trifluoromethyl)picolinamide]
- Degradation of substrate protein IRAK4 (substrate protein remaining %) [2]: A (A is defined as 0% ≤ substrate protein remaining % ≤ 80%)
- inhibition at 0.5 µM [3]: 30 to 40%
- inhibition at 2 µM [3]: 60 to 80%

Structure (SMILES): CC(C)(O)c1cc2nc(C3CCN(Cc4cncc(N5CCC(=O)NC5=O)c4)CC3)oc2cc1NC(=O)c1cccc(C(F)(F)F)n1 [GT-07628, N-(2-(1-((5-(2,4-dioxotetrahydropyrimidin-1(2H)-yl)pyridin-3-yl)methyl)piperidin-4-yl)-5-(2-hydroxypropan-2-yl)benzo[d]oxazol-6-yl)-6-(trifluoromethyl)picolinamide]
- Degradation of substrate protein IRAK4 (substrate protein remaining %) [2]: A (A is defined as 0% ≤ substrate protein remaining % ≤ 80%)
- inhibition at 0.5 µM [3]: 20 to 30%
- inhibition at 2 µM [3]: 60 to 80%

Structure (SMILES): O=C1CCN(c2cccc(CN3CCN(Cc4ccc5c(c4)nc(NC(=O)c4cccc(C(F)(F)F)c4)n5[C@H]4CC[C@@H](CO)CC4)CC3)c2)C(=O)N1 [GT-04977, N-(5-((4-(3-(2,4-dioxotetrahydropyrimidin-1(2H)-yl)benzyl)piperazin-1-yl)methyl)-1-((1s,4s)-4-(hydroxymethyl)cyclohexyl) -1H-benzo[d]imidazol-2-yl)-3-(trifluoromethyl)benzamide]
- IC50 [1]: 100 to 500 nM
- Degradation of substrate protein IRAK4 (substrate protein remaining %) [2]: A (A is defined as 0% ≤ substrate protein remaining % ≤ 80%)
- IC50 [4]: 100 to 500 nM

Structure (SMILES): CC(C)(O)c1cc2nn(C3CCN(Cc4ccnc(C5CCC(=O)NC5=O)c4)CC3)cc2cc1NC(=O)c1cccc(C(F)(F)F)n1 (stereo not shown) [GT-07542, N-(2-(1-((2-(2,6-dioxopiperidin-3-yl)pyridin-4-yl)methyl)piperidin-4-yl)-6-(2-hydroxypropan-2-yl)-2H-indazol-5-yl)-6-(trifluoromethyl)picolinamide]
- Degradation of substrate protein IRAK4 (substrate protein remaining %) [2]: A (A is defined as 0% ≤ substrate protein remaining % ≤ 80%)
- inhibition at 0.5 µM [3]: 30 to 40%
- inhibition at 2 µM [3]: 60 to 80%

Structure (SMILES): COc1cc2nn(C3CCN(Cc4cncc(C5CCC(=O)NC5=O)c4)CC3)cc2cc1NC(=O)c1cccc(C(F)(F)F)c1 (stereo not shown) [GT-07419, N-(2-(1-((5-(2,6-dioxopiperidin-3-yl)pyridin-3-yl)methyl)piperidin-4-yl)-6-methoxy-2H-indazol-5-yl)-3-(trifluoromethyl)benzamide]
- Degradation of substrate protein IRAK4 (substrate protein remaining %) [2]: A (A is defined as 0% ≤ substrate protein remaining % ≤ 80%)
- inhibition at 0.5 µM [3]: 20 to 30%
- inhibition at 2 µM [3]: 53 to 60%
